Experimental data from US12427114B2, “Orodispersible dosage unit containing an estetrol component” (ESTETRA SRL, priority 2015, dated 2025).

Columns and labels:
[1] = Randomized, open-label, two-period, cross-over pharmacokinetic study, sublingual versus oral 10 mg estetrol tablet; type: in vivo, human; conditions: 10 mg estetrol sublingual vs oral; healthy female volunteers
Protocol: A randomized, open-label, two-period, cross-over, pharmacokinetic study is conducted to compare sublingual bioavailability of 10 mg estetrol administered in one 80 mg tablet (having the same composition as the tablets described in Example 4, Formulation E) with oral availability of estetrol contained in a 83 mg tablet containing 10 mg estetrol. These tablets are administered sublingually and orally to healthy female volunteers under fasting conditions.
Ten healthy female subjects are selected on the basis of the following criteria: age of 45-65 years (inclusive), nonsmokers or past smokers (at least 6 months before dosing), body-mass index (BMI)=18.5 to 30 kg/m^2 (inclusive at the time of the screening).
At the start of the first and the second period of the study, between 07:00 am and 07:28 am, 5 subjects receive a single dose of the sublingual formulation of estetrol by administering one estetrol tablet (tablet weight 80 mg; 10 mg estetrol) and 5 subjects receive a single oral dose of the oral estetrol formulation by administering one estetrol tablet (tablet weight 83 mg; 10 mg estetrol), ingested together with 200 ml water. […]
The estetrol concentration in the collected blood samples is determined by means of HPLC/MS/MS. The concentrations of glucuronided estetrol (D-ring) in the urine samples is also determined with the help of HPLC/MS/MS.

[2] = humans; cited from earlier work
[3] = tested on: estrogen receptors; conditions: in vitro; cited from earlier work
[4] = molecular target: T1, sex hormone binding globulin (SHBG) (Homo sapiens, UniProt P04278); conditions: cited from earlier work
T1 sequence (P04278 30-402): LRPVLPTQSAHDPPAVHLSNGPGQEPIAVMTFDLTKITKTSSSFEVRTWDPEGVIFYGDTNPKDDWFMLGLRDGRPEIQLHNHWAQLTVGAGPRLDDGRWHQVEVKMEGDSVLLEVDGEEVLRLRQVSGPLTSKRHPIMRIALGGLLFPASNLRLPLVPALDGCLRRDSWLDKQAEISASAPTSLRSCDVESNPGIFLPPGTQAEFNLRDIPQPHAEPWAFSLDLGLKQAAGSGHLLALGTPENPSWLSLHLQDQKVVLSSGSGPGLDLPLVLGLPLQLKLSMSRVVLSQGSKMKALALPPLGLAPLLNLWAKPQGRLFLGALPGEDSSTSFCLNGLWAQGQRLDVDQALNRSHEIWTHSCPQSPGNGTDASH

[5] = tested on: production of SHBG; conditions: in vitro; cited from earlier work
[6] = tested on: vagina, uterus, body weight, bone mass, bone strength, hot flushes, ovulation; conditions: ovulation (inhibition), dose-dependent; cited from earlier work
[7] = tested on: DMBA mammary tumour; conditions: extent and dose level similar to tamoxifen and to ovariectomy; cited from earlier work
[8] = tested on: human breast cancer cells; conditions: in vitro; cited from earlier work

C[C@]12CC[C@@H]3c4ccc(O)cc4CC[C@H]3[C@@H]1[C@@H](O)[C@@H](O)[C@@H]2O [estetrol, 1,3,5 (10)-estratrien-3,15α,16α, 17β-tetrol]
Impact on a liver function parameter, sublingual compared with oral [1]: less impact on a liver function parameter | Oral bioavailability [2]: high and dose-proportional | Terminal elimination half-life [2]: about 28 hours | Estrogen receptor binding selectivity [3]: binds highly selective to the estrogen receptors with preference for the ERα form | Binding to SHBG [4]: does not bind | Stimulation of the production of SHBG [5]: does not stimulate | Estrogenic effects in rat models [6]: exhibited estrogenic effects | Tumour development [7]: prevented tumour development | Effect in the presence of 17β-estradiol [8]: anti-estrogenic effect
